Measured values published in ChEMBL document CHEMBL1139663, “6H-Benzo[c]chromen-6-one derivatives as selective ERbeta agonists” (Bioorg Med Chem Lett, 2006).

Columns and labels:
Estrogen receptor = biological target: T1, Estrogen receptor (Homo sapiens, UniProt P03372)
T1 sequence (P03372 whole entry): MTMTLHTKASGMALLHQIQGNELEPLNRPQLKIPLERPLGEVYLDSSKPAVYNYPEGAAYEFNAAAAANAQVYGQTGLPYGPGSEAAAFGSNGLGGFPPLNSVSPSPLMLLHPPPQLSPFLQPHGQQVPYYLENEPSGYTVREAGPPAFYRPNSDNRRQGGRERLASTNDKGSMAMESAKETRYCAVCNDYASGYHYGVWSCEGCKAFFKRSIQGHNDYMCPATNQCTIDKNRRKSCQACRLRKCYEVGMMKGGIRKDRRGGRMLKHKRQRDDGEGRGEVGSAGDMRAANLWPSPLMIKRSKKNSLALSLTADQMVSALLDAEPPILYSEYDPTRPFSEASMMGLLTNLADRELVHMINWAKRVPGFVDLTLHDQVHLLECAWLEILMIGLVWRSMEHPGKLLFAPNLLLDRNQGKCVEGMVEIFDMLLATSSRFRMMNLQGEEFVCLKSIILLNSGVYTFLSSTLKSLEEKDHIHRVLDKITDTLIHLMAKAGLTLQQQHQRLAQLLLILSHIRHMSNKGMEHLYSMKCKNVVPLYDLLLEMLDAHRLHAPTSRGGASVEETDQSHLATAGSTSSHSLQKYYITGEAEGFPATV
Description: Binding affinity to ERalpha

Estrogen receptor beta [1] = biological target: T2, Estrogen receptor beta (Homo sapiens, UniProt Q92731)
Description: Binding affinity to ERbeta

Estrogen receptor beta [2] = biological target: T2, Estrogen receptor beta; remark: listed apart in the source
Description: Binding affinity to ERbeta in presence of serum

Estrogen receptor beta [3] = biological target: T2, Estrogen receptor beta; remark: listed apart in the source
Description: Binding affinity to ERbeta in HTRF coactivator recruitment assay

T2 sequence (Q92731 whole entry): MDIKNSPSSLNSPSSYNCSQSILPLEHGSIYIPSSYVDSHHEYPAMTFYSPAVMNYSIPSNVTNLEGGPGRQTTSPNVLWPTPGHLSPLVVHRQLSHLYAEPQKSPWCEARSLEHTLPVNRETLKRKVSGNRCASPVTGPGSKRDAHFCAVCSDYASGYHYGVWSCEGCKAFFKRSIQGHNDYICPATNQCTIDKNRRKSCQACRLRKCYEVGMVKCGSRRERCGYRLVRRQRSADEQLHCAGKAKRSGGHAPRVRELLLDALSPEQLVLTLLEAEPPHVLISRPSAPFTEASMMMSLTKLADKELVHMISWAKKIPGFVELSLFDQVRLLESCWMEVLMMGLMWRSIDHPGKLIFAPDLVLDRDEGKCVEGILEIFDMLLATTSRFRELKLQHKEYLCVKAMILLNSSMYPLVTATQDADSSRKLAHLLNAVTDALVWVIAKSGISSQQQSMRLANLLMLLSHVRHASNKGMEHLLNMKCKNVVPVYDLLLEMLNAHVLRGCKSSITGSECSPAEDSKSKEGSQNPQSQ

Row | Compound | IC50 (Estrogen receptor) [nM] | IC50 (Estrogen receptor beta [1]) [nM] | IC50 (Estrogen receptor beta [2]) [nM] | EC50 (Estrogen receptor beta [3]) [nM]
1 | CCCC1Oc2c(ccc(O)c2C)-c2c(C)cc(O)cc21 (stereo not drawn) | 626 | 22 |  | 
2 | Cc1cc2c(cc1Br)c(=O)oc1c(C)c(O)ccc12 | 6850 | 215 |  | 
3 | CCc1cc(OC)cc2c(=O)oc3c(C)c(O)ccc3c12 | 9830 | 69 |  | 
4 | CCC1Oc2c(ccc(O)c2C)-c2c(C)cc(O)c(C)c21 (stereo not drawn) | 129 | 2.3 |  | 
5 | C=CCC1(C)Oc2c(ccc(O)c2C)-c2c(C)cc(O)c(C)c21 (stereo not drawn) | 157 | 13 |  | 
6 | Cc1c(O)c(Cl)cc2c1c(=O)oc1c(Cl)c(O)ccc12 | 524 | 19 |  | 
7 | Cc1c(O)c(Cl)c(C)c2c1c(=O)oc1c(Cl)c(O)ccc12 | 597 | 22 |  | 
8 | Cc1c(O)ccc2c1oc(=O)c1ccccc12 | > 10000 | 1450 |  | 
9 | Cc1cc(O)cc2c1-c1ccc(O)c(C)c1OC2CC(C)C (stereo not drawn) | 627 | 49 |  | 
10 | Cc1c(O)ccc2c1OC(C)(C)c1c-2ccc(O)c1C | 468 | 45 |  | 
11 | Cc1cc(Br)c2c(c1)c(=O)oc1c(C)c(O)ccc12 | 3120 | 44 |  | 
12 | CC/C=C/c1cc2c(cc1Br)c(=O)oc1c(C)c(O)ccc12 | 1090 | 26 |  | 
13 | Cc1cc(C)c2c(c1)c(=O)oc1c(C)c(O)ccc12 | 3710 | 20 |  | 
14 | C=CCc1cc(C)cc2c(=O)oc3c(C)c(O)ccc3c12 | 10000 | 35 |  | 
15 | O=c1oc2c(Cl)c(O)ccc2c2cc(F)c(O)c(Cl)c12 | 11600 | 180 |  | 
16 | Cc1c(O)ccc2c1oc(=O)c1c(C)c(NC=O)ccc12 | > 10000 | 957 |  | 
17 | Cc1cc(O)c(Cl)c2c(=O)oc3c(Cl)c(O)ccc3c12 | 2520 | 18 |  | 
18 | Cc1c(O)ccc2c1oc(=O)c1c(O)c(O)ccc12 | 1280 | 82 |  | 
19 | CCc1c(O)ccc2c1c(=O)oc1c(C)c(O)ccc12 | 484 | 14 |  | 
20 | Cc1c(O)ccc2c1oc(=O)c1c(C)c(O)ccc12 | 159 | 4.1 | 78 | 7.2

Row | Compound | IC50 (Estrogen receptor) [nM] | IC50 (Estrogen receptor beta [1]) [nM] | IC50 (Estrogen receptor beta [2]) [nM] | EC50 (Estrogen receptor beta [3]) [nM]
21 | Cc1c(O)ccc2c1oc(=O)c1c(C)cccc12 | > 10000 | 93 |  | 
22 | COc1ccc2c(c1)c(=O)oc1c(C)c(O)ccc12 | > 10000 | 308 |  | 
23 | Cc1c(O)ccc2c1c(=O)oc1c(Br)c(O)ccc12 | 1920 | 67 |  | 
24 | COc1ccc2c(c1C)c(=O)oc1c(C)c(O)ccc12 | 1000 | 117 |  | 
25 | Cc1c(O)cc(C)c2c1oc(=O)c1c(C)c(O)ccc12 | 785 | 6.7 |  | 
26 | Cc1c(O)ccc2c1oc(=O)c1cccc(C)c12 | > 10000 | 326 |  | 
27 | C=Cc1cccc2c(=O)oc3c(C)c(O)ccc3c12 | > 10000 | 208 |  | 
28 | Cc1c(O)ccc2c1c(=O)oc1cc(O)cc(C)c12 | 1860 | 67 |  | 
29 | Cc1cc2c(=O)oc3c(C)c(O)ccc3c2c(C)c1Br | > 10000 | 57 |  | 
30 | Cc1c(O)ccc2c1c(=O)oc1cc(O)ccc12 | 1170 | 49 |  | 
31 | Cc1c(O)cc(C)c2c1oc(=O)c1cc(O)ccc12 | 488 | 27 |  | 
32 | Cc1c(O)ccc2c1oc(=O)c1c(Br)cc(Br)cc12 | 597 | 24 |  | 
33 | CCC1Oc2c(ccc(O)c2C)-c2c(C)cc(O)cc21 (stereo not drawn) | 435 | 8 |  | 
34 | C=Cc1ccc2c(c1)c(=O)oc1c(C)c(O)ccc12 | 4590 | 310 |  | 
35 | COc1c(C)cc2c(=O)oc3c(C)c(O)ccc3c2c1C | 4160 | 16 |  | 
36 | CCc1c(O)ccc2c1oc(=O)c1c(C)c(O)ccc12 | 229 | 7.8 |  | 
37 | Cc1c(O)ccc2c1c(=O)oc1c(F)c(O)ccc12 | 1580 | 54 |  | 
38 | CCC1Oc2c(ccc(O)c2C)-c2ccc(O)c(C)c21 (stereo not drawn) | 101 | 3.2 |  | 
39 | Cc1cc(O)cc2c1-c1ccc(O)c(C)c1OC2 | 1030 | 74 |  | 
40 | Cc1cc(O)c(C)c2c1-c1ccc(O)c(C)c1OC2C (stereo not drawn) | 237 | 9 |  | 

Row | Compound | IC50 (Estrogen receptor) [nM] | IC50 (Estrogen receptor beta [1]) [nM] | IC50 (Estrogen receptor beta [2]) [nM] | EC50 (Estrogen receptor beta [3]) [nM]
41 | Cc1c(O)ccc2c1oc(=O)c1cc(O)ccc12 | 654 | 46 |  | 
42 | CCc1c(O)ccc2c1c(=O)oc1c(F)c(O)ccc12 | 228 | 21 |  | 
43 | Cc1c(O)ccc2c1COc1c-2ccc(O)c1C | 4610 | 88 |  | 
44 | Cc1c(O)ccc2c1oc(=O)c1c(C)ccc(C)c12 | 3070 | 80 |  | 
45 | Cc1cc(O)cc2c1-c1ccc(O)c(C)c1OC2C (stereo not drawn) | 1210 | 24 |  | 
46 | C/C=C/c1cccc2c(=O)oc3c(C)c(O)ccc3c12 | 3030 | 116 |  | 
47 | Cc1c(O)ccc2c1oc(=O)c1c(C)c(O)cc(C)c12 | 716 | 5.7 |  | 
48 | Cc1cc(C)c2c(c1)c(=O)oc1cc(O)ccc12 | 585 | 90 |  | 
49 | C=Cc1cc(C)cc2c(=O)oc3c(C)c(O)ccc3c12 | 10000 | 10 | 1280 | > 1000
50 | Cc1c(O)ccc2c1oc(=O)c1c(C)c(N)ccc12 | 14300 | 279 |  | 
51 | Cc1c(O)ccc2c1OC(C)c1c-2ccc(O)c1C (stereo not drawn) | 335 | 8 |  | 
52 | C=Cc1cc(OC)cc2c(=O)oc3c(C)c(O)ccc3c12 | > 10000 | 53 |  | 
53 | COc1c(C)c(Br)c2c(=O)oc3c(C)c(O)ccc3c2c1C | 225 | 1.15 |  | 
54 | CCc1cc(O)cc2c(=O)oc3c(C)c(O)ccc3c12 | 1780 | 91 |  | 
55 | Cc1c(O)ccc2c1oc(=O)c1c(C)c(NS(C)(=O)=O)ccc12 | 4260 | 433 |  | 
56 | Cc1c(O)ccc2c1oc(=O)c1cc(O)cc(C)c12 | 583 | 54 |  | 
57 | CCc1c(O)ccc2c1oc(=O)c1cc(Br)ccc12 | 5460 | 2340 |  | 
58 | COc1cc2c(=O)oc3c(C)c(O)ccc3c2cc1Br | 10000 | 77 |  | 
59 | Cc1c(O)ccc2c1oc(=O)c1cc(Br)ccc12 | > 10000 | 128 |  | 
60 | C=Cc1cc(O)cc2c1-c1ccc(O)c(C)c1CC2 [EFFUSOL] |  | 12 |  | 
